Values joined by “and” are separate entries in the source; they are usually repeats but may differ in a detail not shown here. Identical values can stand only once.
What was measured:
CD4+ CD25− T cells = test: Foxp3 (Treg marker) expression in TGFβ/IL-6 treated T cells; format: cell-based, mouse
Protocol: Low doses of halofuginone (HF) were tested to determine the ability of HF to enhance Treg differentiation, while suppressing Th17 differentiation. Naïve CD4+ T cells (CD4+ CD25−) were isolated from the spleen and peripheral lymph nodes of C57B/6 mice. T cells were then activated using anti-CD3 (0.3 μg/ml) and anti-CD28 (0.5 μg/ml) antibodies either in media alone (row 1, 4), TGFβ alone (3 ng/ml—row 2, 5) or TGFβ (3 ng/ml) plus IL-6 (30 ng/ml) (row 3, 6). […] T cells were cultured for 3 days and CD25 and Foxp3 expression (Treg marker genes) was determine by FACS staining and flow cytometric analyses. Simultaneously, T cells were harvested and re-stimulated for 4 hours using phorbol myristic acetate (PMA; 10 nM), Ionomycin (1 μM) and cytokine secretion was prevented using brefeldin A (20 μg/ml). Following stimulation, the production of IL-17 and IFNγ were determined by intracellular staining and analyzed via flow cytometry. […]
FACS analyses and sorting: All cell surface staining was performed in FACS buffer (PBS/2% FCS/0.1% NaN3) and antibodies were incubated with cells on ice for 20-30 minutes. […] All FACS data was acquired on a FACSCalibur flow cytometer (BD Pharmingen) and analyzed using FlowJo software (Treestar, Inc., Ashland, Oreg.). […]

[1] = rabbit, in vivo; cited from earlier work
TSK mouse = conditions: 1 μg HF/mouse IP daily; cited from earlier work

Which results are given for `O=C(CC1NCCCC1O)Cn1cnc2cc(Br)c(Cl)cc2c1=O` (racemic) [HF, 7-bromo-6-chloro-3-[3-(3-hydroxy-2-piperidinyl)-2-oxopropyl]-4(3H)-quinazolinone]?
Foxp3 expression of T cells differentiated in the presence of HF (CD4+ CD25− T cells; 10 nM HF, TGFβ plus IL-6, day 3): enhanced Foxp3 expression; HF concentration that increased expression of the Treg marker FoxP3 (CD4+ CD25− T cells; TGFβ/IL-6 treated T-cells, 3 days): 2.5 to 10 nM and 2.2 to 10 nM; HF in serum after topical treatment of rabbits [1]: undetectable in serum; normal skin thickness (TSK mouse): did not reduce; skin thickness of TSK mouse (TSK mouse): reduced skin thickness of a TSK mouse to that of a normal mouse; toxic effects in TSK model (TSK mouse): no toxic effects

— US20090123389A1, “Methods for modulating Th17 cell development in the treatment and prevention of cellulite” (priority 2007, published 2009)
